Among the data in paper PMC6332036, “The Guareschi Pyridine Scaffold as a Valuable Platform for the Identification of Selective PI3K Inhibitors” (Molecules, 2015) are IC50 and melting point values, retold here.

Broadly, the IC50 is the concentration that inhibits the measured activity by half. For orientation: melting point means the temperature, or range, at which the solid turns liquid.

For series [1], the target named is T1, PI3Kδ (Homo sapiens, UniProt O00329).
T1 construct: purchased JenaBioscience PR-345
T1 sequence (O00329 whole entry): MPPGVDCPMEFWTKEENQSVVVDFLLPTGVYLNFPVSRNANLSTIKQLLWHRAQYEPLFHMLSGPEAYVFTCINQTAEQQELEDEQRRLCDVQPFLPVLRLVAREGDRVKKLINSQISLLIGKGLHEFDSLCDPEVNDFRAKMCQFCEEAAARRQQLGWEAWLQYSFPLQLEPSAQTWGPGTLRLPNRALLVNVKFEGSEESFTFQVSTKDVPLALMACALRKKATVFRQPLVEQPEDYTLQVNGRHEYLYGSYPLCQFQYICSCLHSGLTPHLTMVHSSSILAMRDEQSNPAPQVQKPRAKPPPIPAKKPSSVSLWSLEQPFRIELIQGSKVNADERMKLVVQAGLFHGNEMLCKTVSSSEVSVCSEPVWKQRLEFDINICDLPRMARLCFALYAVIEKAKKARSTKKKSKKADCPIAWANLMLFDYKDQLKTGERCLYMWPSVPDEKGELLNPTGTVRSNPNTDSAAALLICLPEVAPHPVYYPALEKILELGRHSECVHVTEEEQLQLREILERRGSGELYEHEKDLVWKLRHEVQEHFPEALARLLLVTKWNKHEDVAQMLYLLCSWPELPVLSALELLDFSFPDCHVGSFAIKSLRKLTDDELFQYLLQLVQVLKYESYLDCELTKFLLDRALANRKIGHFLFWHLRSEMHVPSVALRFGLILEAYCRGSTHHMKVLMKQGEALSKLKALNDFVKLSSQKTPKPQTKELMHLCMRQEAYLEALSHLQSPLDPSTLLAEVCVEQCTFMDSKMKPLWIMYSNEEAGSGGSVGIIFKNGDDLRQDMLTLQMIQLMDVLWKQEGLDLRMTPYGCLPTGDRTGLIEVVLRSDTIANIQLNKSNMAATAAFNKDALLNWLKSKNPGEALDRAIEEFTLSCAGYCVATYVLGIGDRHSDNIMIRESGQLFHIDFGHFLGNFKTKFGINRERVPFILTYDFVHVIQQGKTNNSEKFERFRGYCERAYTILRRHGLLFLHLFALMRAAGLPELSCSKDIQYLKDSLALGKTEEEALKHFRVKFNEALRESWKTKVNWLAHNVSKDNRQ
T1 sequence (P27986 whole entry partner): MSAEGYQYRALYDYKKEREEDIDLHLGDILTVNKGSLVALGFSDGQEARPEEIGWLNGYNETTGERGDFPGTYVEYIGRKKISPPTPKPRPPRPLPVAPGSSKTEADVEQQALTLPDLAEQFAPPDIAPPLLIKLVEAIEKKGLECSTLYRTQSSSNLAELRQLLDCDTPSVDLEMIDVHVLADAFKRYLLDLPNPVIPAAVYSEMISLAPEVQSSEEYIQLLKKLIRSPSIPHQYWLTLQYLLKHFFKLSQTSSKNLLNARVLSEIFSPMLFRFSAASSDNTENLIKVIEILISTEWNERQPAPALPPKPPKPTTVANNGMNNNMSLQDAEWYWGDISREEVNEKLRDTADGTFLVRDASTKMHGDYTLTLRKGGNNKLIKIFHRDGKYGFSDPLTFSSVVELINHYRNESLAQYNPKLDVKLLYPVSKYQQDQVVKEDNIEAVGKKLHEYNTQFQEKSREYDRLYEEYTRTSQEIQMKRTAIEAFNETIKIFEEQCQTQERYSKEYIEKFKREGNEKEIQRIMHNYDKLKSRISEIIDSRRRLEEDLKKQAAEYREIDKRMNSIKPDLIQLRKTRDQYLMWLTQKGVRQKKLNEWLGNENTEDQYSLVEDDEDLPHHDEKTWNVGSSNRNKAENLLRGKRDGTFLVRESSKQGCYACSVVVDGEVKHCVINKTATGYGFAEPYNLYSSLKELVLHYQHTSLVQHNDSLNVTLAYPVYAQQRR
Nature of the series: ADP-Glo luminescent lipid kinase assay, PI3Kδ. Format: biochemical. As to conditions: recombinant enzyme 30 ng, 10 μM ATP, 30 min, room temperature; standard error (SE). As to the method:
(§1) All the synthesized compounds were then tested in vitro for their ability to inhibit the kinase activity of the PI3Kα, PI3Kβ, PI3Kγ, and PI3Kδ isoforms in a luminescent kinase assay (ADP-GloTM kinase assay) using purified, recombinant human enzymes and ATP. IC50 values were subsequently determined.
(§2) To evaluate the ability of each compound of formula (9a–h) to inhibit the lipid kinase activity of each PI3K isoform, 30 ng of PI3Kα, β, γ, and δ recombinant protein (purchased from JenaBioscience—Jena, Germany; PI3Kα #PR-335, PI3Kβ #PR-344, PI3Kγ #PR-343, PI3Kδ #PR-345) were incubated with at least five different concentrations (from 0.016 to 10 µM) of the compounds (9a–h). The phosphorylation reaction was then started by adding 10 μM of ATP, and 10 µg of lipid micelles containing the appropriate substrate phosphatidylinositol and the phosphatidylserine.
(§3) After 30 min of incubation (1 h for PI3Kβ recombinant protein) at room temperature, the reaction was stopped, and the amount of ADP metabolite was measured with a luminescent kinase assay, ADP-GloTM Kinase Assay (purchased from Promega—USA #V9101). The luminescent signal positively correlated with the formed ADP and, therefore, with the kinase activity. The percentage of kinase activity was calculated over the control samples, containing only dimethyl sulfoxide (DMSO). To derive the IC50 values for each assayed compound (9a–h), all data were plotted on a dose response curve (Graph Pad Software) and the IC50 was calculated by using the nonlinear regression fit (equation (log agonist) vs. response—Sigmoidal dose response). The IC50 was representative of two different experiments performed in triplicate.

In series [2] the target is T2, PI3Kγ (Homo sapiens, UniProt P48736).
T2 construct: purchased JenaBioscience PR-343
T2 sequence (P48736 whole entry): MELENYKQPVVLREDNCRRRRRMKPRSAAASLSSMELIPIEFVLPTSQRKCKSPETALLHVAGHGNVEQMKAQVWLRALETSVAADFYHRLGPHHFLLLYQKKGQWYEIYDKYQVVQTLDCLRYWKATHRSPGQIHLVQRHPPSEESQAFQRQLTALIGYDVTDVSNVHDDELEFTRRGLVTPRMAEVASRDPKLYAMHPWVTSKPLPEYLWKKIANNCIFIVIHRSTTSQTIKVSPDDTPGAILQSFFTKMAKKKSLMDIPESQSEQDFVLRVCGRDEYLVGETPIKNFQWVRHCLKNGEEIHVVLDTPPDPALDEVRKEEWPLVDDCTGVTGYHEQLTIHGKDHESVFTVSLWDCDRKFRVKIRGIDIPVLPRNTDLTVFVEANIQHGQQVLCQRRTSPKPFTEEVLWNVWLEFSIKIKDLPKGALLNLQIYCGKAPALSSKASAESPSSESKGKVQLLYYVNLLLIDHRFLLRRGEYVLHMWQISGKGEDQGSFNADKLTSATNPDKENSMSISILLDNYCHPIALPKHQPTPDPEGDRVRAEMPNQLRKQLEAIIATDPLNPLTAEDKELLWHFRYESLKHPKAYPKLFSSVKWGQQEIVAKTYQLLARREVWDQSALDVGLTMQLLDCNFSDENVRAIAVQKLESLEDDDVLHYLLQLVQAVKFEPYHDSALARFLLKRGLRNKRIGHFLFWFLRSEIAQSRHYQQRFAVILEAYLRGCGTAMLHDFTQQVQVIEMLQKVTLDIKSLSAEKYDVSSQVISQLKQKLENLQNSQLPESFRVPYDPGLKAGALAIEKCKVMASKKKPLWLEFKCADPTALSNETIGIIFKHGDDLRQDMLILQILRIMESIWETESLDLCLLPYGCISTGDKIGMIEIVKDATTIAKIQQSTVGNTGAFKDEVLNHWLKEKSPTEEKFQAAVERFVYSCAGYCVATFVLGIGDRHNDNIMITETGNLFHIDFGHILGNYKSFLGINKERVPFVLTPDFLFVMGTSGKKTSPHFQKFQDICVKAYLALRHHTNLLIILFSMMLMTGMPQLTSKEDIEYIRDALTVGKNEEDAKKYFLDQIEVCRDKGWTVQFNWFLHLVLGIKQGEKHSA
Nature of the series: ADP-Glo luminescent lipid kinase assay, PI3Kγ. As to conditions: recombinant enzyme 30 ng, 10 μM ATP, 30 min, room temperature; standard error (SE). Type of series: biochemical. How it is done: as §1, §2, §3
(In general: ADP-Glo turns the ADP formed in a reaction into a luminescent signal.)

For series [3], the target named is T3, PI3Kα (Homo sapiens, UniProt P42336).
T3 construct: purchased JenaBioscience PR-335
T3 sequence (P42336 whole entry): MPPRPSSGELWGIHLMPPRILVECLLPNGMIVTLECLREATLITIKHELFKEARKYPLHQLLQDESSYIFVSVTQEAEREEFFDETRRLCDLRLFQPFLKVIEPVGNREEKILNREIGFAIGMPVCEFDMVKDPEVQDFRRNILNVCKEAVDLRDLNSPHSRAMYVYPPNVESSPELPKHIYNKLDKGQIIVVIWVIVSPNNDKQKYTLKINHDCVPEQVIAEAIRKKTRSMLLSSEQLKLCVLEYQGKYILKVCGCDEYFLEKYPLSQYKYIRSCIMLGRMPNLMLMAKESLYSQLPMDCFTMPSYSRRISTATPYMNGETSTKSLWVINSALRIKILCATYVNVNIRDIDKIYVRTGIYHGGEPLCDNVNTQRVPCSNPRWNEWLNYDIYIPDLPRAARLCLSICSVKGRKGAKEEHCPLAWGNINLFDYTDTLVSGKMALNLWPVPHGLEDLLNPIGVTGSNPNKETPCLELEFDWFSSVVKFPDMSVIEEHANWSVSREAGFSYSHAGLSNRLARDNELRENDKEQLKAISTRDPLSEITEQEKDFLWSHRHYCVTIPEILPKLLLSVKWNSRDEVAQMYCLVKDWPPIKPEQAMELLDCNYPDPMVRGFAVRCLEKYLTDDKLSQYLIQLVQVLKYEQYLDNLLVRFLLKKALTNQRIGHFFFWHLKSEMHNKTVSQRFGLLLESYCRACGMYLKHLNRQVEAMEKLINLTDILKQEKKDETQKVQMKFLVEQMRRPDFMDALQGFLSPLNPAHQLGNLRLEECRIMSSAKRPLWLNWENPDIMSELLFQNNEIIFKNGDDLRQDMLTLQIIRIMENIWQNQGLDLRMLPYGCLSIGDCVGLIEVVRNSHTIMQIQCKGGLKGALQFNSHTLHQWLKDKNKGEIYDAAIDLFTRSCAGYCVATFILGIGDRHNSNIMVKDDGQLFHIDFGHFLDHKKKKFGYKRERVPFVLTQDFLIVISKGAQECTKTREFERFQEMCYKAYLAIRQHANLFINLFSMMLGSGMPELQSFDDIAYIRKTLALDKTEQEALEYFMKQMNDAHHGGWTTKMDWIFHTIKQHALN
T3 sequence (P27986 whole entry partner): as the sequence (P27986 whole entry partner) above
Nature of the series: ADP-Glo luminescent lipid kinase assay, PI3Kα. Type of series: biochemical. The conditions noted are these: recombinant enzyme 30 ng, 10 μM ATP, 30 min, room temperature; standard error (SE). As to the method: as §1, §2, §3

For series [4], the target named is T4, PI3Kβ (Homo sapiens, UniProt P42338).
T4 construct: purchased JenaBioscience PR-344
T4 sequence (P42338 whole entry): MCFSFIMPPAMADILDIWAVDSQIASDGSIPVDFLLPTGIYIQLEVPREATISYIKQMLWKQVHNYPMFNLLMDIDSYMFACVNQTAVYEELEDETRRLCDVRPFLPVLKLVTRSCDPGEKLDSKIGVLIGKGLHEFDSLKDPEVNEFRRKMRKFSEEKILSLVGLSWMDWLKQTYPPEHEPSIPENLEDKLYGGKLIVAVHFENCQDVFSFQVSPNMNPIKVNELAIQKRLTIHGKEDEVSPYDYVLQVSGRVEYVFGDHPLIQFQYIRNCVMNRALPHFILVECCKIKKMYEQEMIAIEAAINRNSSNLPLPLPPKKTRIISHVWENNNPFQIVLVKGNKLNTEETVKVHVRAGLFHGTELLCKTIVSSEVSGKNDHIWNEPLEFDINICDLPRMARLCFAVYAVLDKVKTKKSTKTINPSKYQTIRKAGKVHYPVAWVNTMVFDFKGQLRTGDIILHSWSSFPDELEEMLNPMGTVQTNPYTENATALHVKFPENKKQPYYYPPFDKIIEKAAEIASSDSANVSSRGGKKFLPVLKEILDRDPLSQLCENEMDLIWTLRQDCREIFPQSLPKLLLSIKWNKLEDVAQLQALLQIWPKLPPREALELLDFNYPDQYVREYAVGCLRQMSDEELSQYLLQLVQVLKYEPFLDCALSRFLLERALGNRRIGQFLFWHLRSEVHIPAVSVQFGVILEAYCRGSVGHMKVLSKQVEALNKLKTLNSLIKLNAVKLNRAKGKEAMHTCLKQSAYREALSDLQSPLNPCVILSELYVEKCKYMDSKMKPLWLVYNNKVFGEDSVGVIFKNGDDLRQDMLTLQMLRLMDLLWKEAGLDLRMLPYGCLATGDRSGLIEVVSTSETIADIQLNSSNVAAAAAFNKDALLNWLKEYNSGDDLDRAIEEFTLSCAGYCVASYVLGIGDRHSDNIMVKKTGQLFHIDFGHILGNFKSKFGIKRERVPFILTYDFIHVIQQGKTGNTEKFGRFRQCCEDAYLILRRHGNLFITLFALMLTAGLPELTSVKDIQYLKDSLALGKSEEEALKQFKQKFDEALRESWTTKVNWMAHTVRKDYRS
T4 sequence (P27986 whole entry partner): as the sequence (P27986 whole entry partner) above
Nature of the series: ADP-Glo luminescent lipid kinase assay, PI3Kβ. As to conditions: recombinant enzyme 30 ng, 10 μM ATP, 1 h, room temperature; standard error (SE). Format: biochemical. As to the method:
as §1, §2, §3

The subject of series [5] is PI3Kα signaling pathway. Nature of the series: Cell-based assay: P-Akt in insulin-stimulated NIH3T3 cells (Western blot). As to conditions: Mus musculus, 1.5 h pre-treatment, 5 min stimulation with 1 μM insulin, SE ± 0.6, read-out: IC50, residual P-Akt. As to the method:
Subsequently, compound 9b was analyzed on cell-based assay in order to evaluate its ability to inhibit the PI3Kα signaling pathway on cells. It is well established that insulin signaling is mostly regulated by PI3Kα [29]. The activated insulin receptor triggers PI3Kα activity mainly by binding and phosphorylating adaptor proteins of the IRS (insulin receptor substrate) family. Once activated, PI3Kα produces the PtdIns(3,4,5)P3 lipid product, which in turn mediates the activation of downstream effectors such as Akt. Thus, phosphorylation of Akt results as a key event of the PI3Kα activation. […] A dose response curve and an IC50 value were determined.
NIH3T3 cells were cultured in […] (DMEM) (GIBCO-Thermo Fisher Scientific Inc., Waltham, MA, USA) supplemented with 10% Fetal Bovine Serum (FBS) (GIBCO-Thermo Fisher Scientific Inc.), 100 units/mL penicillin (GIBCO-Thermo Fisher Scientific Inc.), and 100 μg/mL streptomycin (GIBCO- Thermo Fisher Scientific Inc.). […] The P-Akt production is detected by Western blot analysis and quantified with ChemiDoc™ XRS system. From the absolute values, a percentage of residual P-Akt is calculated for each inhibitor concentration by using the control vehicle as 100%. […]
On the technique in general: Immunoblotting shows a protein as a band on a membrane.

Structures are written as SMILES. A value given as a limit tells only on which side of the number the result lay.

`N#Cc1c(-c2ccccc2)cc(N2CCOCC2)nc1-c1cccc(O)c1` [Compound 9a]: the melting point is 221 to 223 °C (dec.). Also, the half-maximal inhibitory concentration (IC50) in series [1] came to 1220 nM. Further, the 50% inhibitory concentration (IC50) in series [2] is above 10000 nM. The IC50 in series [3] is 130 nM. For the same compound, the IC50 in series [4] was 1990 nM.

`N#Cc1c(-c2ccc(Oc3ccccc3)cc2)cc(N2CCOCC2)nc1-c1cccc(O)c1` [Compound 9b] showed a melting point of 240 to 242 °C. In addition, the IC50 in series [1] is above 10000 nM. Further, the IC50 in series [2] is above 10000 nM. Besides, the IC50 in series [3] was found to be 630 nM. Moreover, the IC50 in series [5] amounted to 2800 nM. In addition, the 50% inhibitory concentration (IC50) in series [4] was above 10000 nM.

`COc1ccc(-c2cc(N3CCOCC3)nc(-c3cccc(O)c3)c2C#N)cc1` [Compound 9c] gave a melting point of 216 to 217 °C. Besides, the 50% inhibitory concentration (IC50) in series [1] was 1370 nM. In addition, the half-inhibitory concentration (IC50) in series [2] is 2180 nM. For the same compound, the IC50 in series [3] is 1790 nM. Also, the half-maximal inhibitory concentration (IC50) in series [4] is above 10000 nM.

Turning to `COc1cccc(-c2cc(N3CCOCC3)nc(-c3cccc(O)c3)c2C#N)c1` [Compound 9d], the melting point is 208 to 209 °C (dec.). Also, the concentration for half-maximal inhibition (IC50) in series [1] was found to be 1090 nM. Moreover, the 50% inhibitory concentration (IC50) in series [2] is 1640 nM. Further, in series [3], the half-inhibitory concentration (IC50) amounted to 630 nM. Further, in series [4], the IC50 amounted to 2340 nM.

In turn, `COc1ccc(-c2cc(N3CCOCC3)nc(-c3cccc(O)c3)c2C#N)cc1OC` [Compound 9e] displayed a melting point of 142 to 144 °C. The half-inhibitory concentration (IC50) in series [1] was 900 nM. The 50% inhibitory concentration (IC50) in series [2] was found to be 2910 nM. Also, the half-inhibitory concentration (IC50) in series [3] was 830 nM. The concentration for half-maximal inhibition (IC50) in series [4] is 6480 nM.

On to `Cc1ccc(-c2cc(N3CCOCC3)nc(-c3cccc(O)c3)c2C#N)cc1C` [Compound 9f], for which the melting point is 117 to 120 °C (dec.). Moreover, in series [1], the 50% inhibitory concentration (IC50) worked out at 1330 nM. For the same compound, the half-maximal inhibitory concentration (IC50) in series [2] came to 4430 nM. Moreover, the half-maximal inhibitory concentration (IC50) in series [3] was above 10000 nM. For the same compound, in series [4], the IC50 was above 10000 nM.

In the case of `N#Cc1c(-c2ccncc2)cc(N2CCOCC2)nc1-c1cccc(O)c1` [Compound 9g], the melting point was 290 to 292 °C (dec.). Also, the IC50 in series [1] was found to be 850 nM. Moreover, in series [2], the IC50 came out at 1560 nM. Also, in series [3], the concentration for half-maximal inhibition (IC50) was 1230 nM. The IC50 in series [4] was above 10000 nM.

With `N#Cc1c(-c2cccnc2)cc(N2CCOCC2)nc1-c1cccc(O)c1` [Compound 9h], the melting point was 239 to 242 °C (dec.). The concentration for half-maximal inhibition (IC50) in series [1] was 710 nM. In addition, in series [2], the half-inhibitory concentration (IC50) came out at 2430 nM. Moreover, the IC50 in series [3] is 980 nM. Moreover, in series [4], the concentration for half-maximal inhibition (IC50) was above 10000 nM.

In the case of `Cc1cc(N2CCOCC2)nc(-c2cccc(O)c2)c1C#N` [Compound 10, 2-(3-Hydroxyphenyl)-6-morpholino-4-methylnicotinonitrile], the melting point fell in the range of 195 to 197 °C. The IC50 in series [1] was 420 nM. Further, in series [2], the IC50 is 1050 nM. For the same compound, the 50% inhibitory concentration (IC50) in series [3] worked out at 1180 nM. The IC50 in series [4] worked out at 1550 nM.
